From patent publication US8945549B2, “Methods of treating antinociceptive tolerance” (Saint Louis University, priority 2010, dated 2015) come the findings set out here.

Test [1] deals with Male Sprague Dawley rats. Put plainly: Thermal hyperalgesia (Hargreaves paw-withdrawal latency) in rats with chronic s.c. morphine or saline infusion. The format is in vivo, rat. How it is done: (§1) Osmotic pump implantation. Rats, under light isoflurane anesthesia, were subcutaneously implanted (in the interscapular region) with osmotic pumps (Alzet 2001; Alza, Mountain View Calif.), to deliver saline at 1 μl/h or morphine at 75 μg μl^−1h^−1 over 7 days as described (Vera-Portocarrero et al., 2006). Minipumps were filled according to manufacturer's specifications. The use of the osmotic pump ensures a continuous delivery of morphine avoiding intermittent periods of withdrawal. The integrity of the pump delivery system was reexamined at the end of each experiment when the spinal cords were harvested.
(§2) Drug administration. The test substances fumonisin B1 (FB 1, Sigma-Aldrich, St. Louis, Mo.), myriocin (Myr Sigma-Aldrich, St. Louis, Mo.), D609 (Tricyclodecan-9-ylxanthogenate, K; Calbiochem, San Diego, Calif.), DMS (N,N-Dimethylsphingosine, Caymen Chemical, Ann Arbor, Mich.), SK-I 2-(p-hydroxyanilino)-4-(p-chlorophenyl) thiazole, Calbiochem, San Diego, Calif.) or their vehicle (0.5% in DMSO) were delivered by intrathecal (i.th) injection in rats chronically implanted with i.th cannulas as described previously (Storkson et al., 1996). Test substances were injected i.th once a day for 6 days in a total volume of 10 μl followed by a 10 μl flush with sterile physiological saline.
Behavioral tests. Thermal hyperalgesia. The method of Hargreaves and colleagues was used to assess changes in baseline nociceptive responses to a thermal nociceptive stimulus (Hargreaves et al., 1988). Animals were allowed to acclimate within a Plexiglas enclosure on a clear glass plate in a quiet testing room. A radiant heat source is focused onto the plantar aspect of the hindpaw with baseline latencies of 18-20 sec. and a maximal cutoff time of 20 sec to prevent tissue damage. The paw-withdrawal latency is determined by a motion detector activated by the paw withdrawal, stopping a timer. Foot withdrawal latencies were taken on the day before implantation of the minipumps (baseline) and subsequently on days 1, 3 and 6 of the experimental period to determine whether morphine-tolerant animals develop increased sensitivity to thermal stimulation. A significant (P<0.05) reduction in paw-withdrawal latency over time and before implantation of the osmotic minipump is characterized as thermal hyperalgesia. […]

The next test has as its system S1P. Nature of the test: S1P levels in dorsal horn tissue by ELISA. It is filed as in vivo, rat. Background: ELISA stands for enzyme-linked immunosorbent assay.
A short description of test [2]: Carrageenan-induced inflammation. It is filed as in vivo. To be noted: intraplantar injection 15 min before carrageenan.
Test [3] deals with Male Sprague Dawley rats. Put plainly: Antinociceptive tolerance (tail flick after acute morphine) in rats with chronic s.c. morphine or saline infusion. It is filed as in vivo, rat. The note with it: acute i.th injection; n=4, not shown.
Another test has as its system rats. Put plainly: Carrageenan-induced thermal hyperalgesia. It is filed as in vivo, rat. To be noted: intraplantar SK-1 250, 500 or 1000 ng.
Test [4] concerns Male Sprague Dawley rats. Put plainly: Antinociceptive tolerance (tail flick after acute morphine) in rats with chronic s.c. morphine or saline infusion. The format is in vivo, rat. How it is done:
as §1, §2
After the Hargreave's test, the development of antinociceptive tolerance was determined in all animals as follows. Acute nociception. The tail flick test which measures, withdrawal latencies of the tail from a noxious radiant heat source was used to measure thermal nociceptive sensitivity with baseline latencies of 4-5 sec and it cut-off time of 10 sec to prevent tissue injury (D'Amour, 1941). […]. Test substances or vehicle were given on day 0-6 after completion of the behavioral tests. At the required time points, after the behavioral tests, spinal cord tissues from the lumbar, enlargement segment of the spinal cord (L4-L6) and dorsal horn tissues were removed and tissues processed for immunohistochemical, Western blot and biochemical analysis. All experiments were conducted with the experimenters blinded to treatment conditions. […]

The mark [5] stands for this setting: daily i.th for 6 days with s.c. morphine infusion, Myr 0.3, FB1 1, D609 1, DMS 0.3, SK-1 0.3 μM/day.

Structures are written as SMILES.

As to `Oc1ccc(Nc2nc(-c3ccc(Cl)cc3)cs2)cc1` [SK-1, 2-(p-hydroxyanilino)-4-(p-chlorophenyl) thiazole], the “development of morphine-induced hyperalgesia” value in the test on Male Sprague Dawley rats [1] (setting [5]) is recorded as “blocked”. The “effect on paw-withdrawal latencies” value in the test with Male Sprague Dawley rats [1] (drug alone vs Veh-Sal, day 6) is reported as “did not affect”. Further, the “Paw-Withdrawal Latency” value with Male Sprague Dawley rats [1] (drug given alone i.th daily over 6 days to saline-infused rats, day 6, mean ± SEM) was 19 ± 0.7 s. The “morphine-induced increased production of S1P in dorsal horn tissues” value in the test on S1P (setting [5]) was “blocked”. Further, the “effect on S1P levels in spinal cord tissues” value with S1P (drug alone vs Veh-Sal, day 6) is given as “did not affect”. In addition, the “S1P (pg/mg tissue)” value with S1P (rat, in vivo) is listed as 1.3 ± 0.06 pg/mg tissue. In test [2], the carrageenan-induced inflammation entry is “blocks”. In addition, the “reversal of tolerance once established” value with Male Sprague Dawley rats [3] was “did not reverse”. Besides, the carrageenan-induced thermal hyperalgesia result in the test with rats was “attenuated in a dose-dependent manner”. For the same molecule, the “development of morphine antinociceptive tolerance” value in the test with Male Sprague Dawley rats [4] (setting [5]) is “blocked”. The “effect on antinociceptive responses to acute morphine” value in the test with Male Sprague Dawley rats [4] (drug alone vs Veh-Sal, day 6) was “did not affect”. Further, in the test with Male Sprague Dawley rats [4] (drug given alone i.th daily over 6 days to saline-infused rats, response to acute morphine, day 6, mean ± SEM), the “% MPE (Tail-flick)” value is 99 ± 0.9%.
